Source: article PMC1810525, “Antagonism of the prostaglandin D2 receptor CRTH2 attenuates asthma pathology in mouse eosinophilic airway inflammation” (Respiratory Research, 2007)

Tests used:
iNOS = iNOS (Homo sapiens, UniProt P35228); assay: Profiling panel, enzymatic assay iNOS; format: biochemical; conditions: 10 μM
Procedure: (§1) All assays were performed using recombinant human receptors and enzymes, and included the appropriate controls for assay validation. Enzymatic and binding assays, except for muscarinic binding, were performed by CEREP in vitro pharmacology profiling services. […] For stimulation of C3a, C5a, and ChemR23 receptors in InsP assays the following agonists were used: human recombinant C3a (C3a receptor), human recombinant C5a (C5a receptor), and the nonapeptide Chemerin (ChemR23).

AT1 = target: T1, AT1 (Homo sapiens, UniProt P30556); assay: Profiling panel, radioligand binding AT1; conditions: 10 μM
T1 sequence (P30556 1-359): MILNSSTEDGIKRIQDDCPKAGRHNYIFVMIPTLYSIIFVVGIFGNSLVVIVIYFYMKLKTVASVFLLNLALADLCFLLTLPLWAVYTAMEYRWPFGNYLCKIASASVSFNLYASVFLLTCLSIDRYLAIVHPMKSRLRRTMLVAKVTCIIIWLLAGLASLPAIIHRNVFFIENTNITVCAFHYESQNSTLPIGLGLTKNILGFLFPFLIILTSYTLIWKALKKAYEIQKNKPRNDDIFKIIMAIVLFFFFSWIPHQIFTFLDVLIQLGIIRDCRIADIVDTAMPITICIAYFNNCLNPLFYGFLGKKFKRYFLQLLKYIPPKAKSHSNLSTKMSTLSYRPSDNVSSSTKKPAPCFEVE
Procedure: as §1

## CN(C1CCc2c(c3ccccc3n2CC(=O)O)C1)S(=O)(=O)c1ccc(F)cc1 (centres unmarked) [TM30089]
iNOS
  % of control iNOS: 102.3 ± 3.6%
AT1
  % of control AT1: 90.1 ± 2.8%
